The record followed here is PubChem BioAssay AID1259407 (Chemical Carcinogenesis Research Information System (CCRIS), 2018).

Active and inactive are the calls of the source. How the calls were made is not given here.

In this data set the test system is CCRIS mutagenicity, Ames/micronucleus/aberration tests. Put plainly: CCRIS mutagenicity studies.
Where [1] appears, read: Test System: AMES SALMONELLA TYPHIMURIUM, Strain/Indicator: TA98, Metabolic Activation: NONE, Method: STANDARD PLATE.
[2] abbreviates: Test System: AMES SALMONELLA TYPHIMURIUM, Strain/Indicator: TA100, Metabolic Activation: NONE, Method: STANDARD PLATE.
Where [3] appears, read: Test System: AMES SALMONELLA TYPHIMURIUM, Strain/Indicator: TA100, Metabolic Activation: RAT, LIVER, S-9, AROCLOR 1254, Method: STANDARD PLATE.

For the compound `Oc1c(O)c(Cl)c(Cl)c(Cl)c1Cl`, the mutagenic call reads like this: (Test System: CHINESE HAMSTER V-79, Strain/Indicator: V-79/6-THIOGUANINE (HGPRT), Metabolic Activation: NONE, Method: SUSPENSION/PLATE) “inactive; negative”; (Test System: CHINESE HAMSTER V-79, Strain/Indicator: V-79/6-THIOGUANINE, Metabolic Activation: NONE, Method: STANDARD PLATE) “inactive; negative”; (Test System: CHINESE HAMSTER V-79, Strain/Indicator: V-79/6-THIOGUANINE, Metabolic Activation: PRIMARY RAT HEPATOCYTES, Method: STANDARD PLATE) “inactive; negative”; (Test System: CHINESE HAMSTER V-79, Strain/Indicator: V-79/OUABAIN, Metabolic Activation: NONE, Method: SUSPENSION/PLATE) “inactive; negative”.
As for `CCS(=O)(=O)n1ncc(Cl)c(Cl)c1=O`, the mutagenic call runs as follows: under setting [1], “inactive; negative”; (Test System: AMES SALMONELLA TYPHIMURIUM, Strain/Indicator: TA98, Metabolic Activation: RAT, LIVER, S-9, AROCLOR 1254, Method: STANDARD PLATE) “inactive; negative”; under setting [2], “active; positive”; under setting [3], “active; positive”; (Test System: AMES SALMONELLA TYPHIMURIUM, Strain/Indicator: TA1535, Metabolic Activation: NONE, Method: STANDARD PLATE) “inactive; negative”; (Test System: AMES SALMONELLA TYPHIMURIUM, Strain/Indicator: TA1535, Metabolic Activation: RAT, LIVER, S-9, AROCLOR 1254, Method: STANDARD PLATE) “inactive; negative”. Also, the mutagenic call (Test System: AMES SALMONELLA TYPHIMURIUM, Strain/Indicator: TA1537, Metabolic Activation: NONE, Method: STANDARD PLATE) was “inactive; negative” and the mutagenic call (Test System: AMES SALMONELLA TYPHIMURIUM, Strain/Indicator: TA1537, Metabolic Activation: RAT, LIVER, S-9, AROCLOR 1254, Method: STANDARD PLATE) is “inactive; negative”.
On to `Cn1c(NO)nc2c3cccnc3ccc21`, for which the mutagenic call reads like this: (Test System: AMES SALMONELLA TYPHIMURIUM, Strain/Indicator: TA98(NR), Metabolic Activation: NADPH, Method: STANDARD PLATE) “active; positive”; (Test System: AMES SALMONELLA TYPHIMURIUM, Strain/Indicator: TA98(NR), Metabolic Activation: NONE, Method: STANDARD PLATE) “active; positive”; (Test System: AMES SALMONELLA TYPHIMURIUM, Strain/Indicator: TA98(NR), Metabolic Activation: RAT, LIVER, MICROSOMES, NADPH, Method: STANDARD PLATE) “active; positive”; (Test System: AMES SALMONELLA TYPHIMURIUM, Strain/Indicator: TA98(NR), Metabolic Activation: RAT, LIVER, MICROSOMES, Method: STANDARD PLATE) “active; positive”; (Test System: AMES SALMONELLA TYPHIMURIUM, Strain/Indicator: TA98(NR), Method: STANDARD PLATE) “active; positive”; under setting [1], “active; positive”.
`Fc1ccc2c3c(cccc13)-c1cc3ccccc3cc1-2`: the mutagenic call under setting [3] is “active; positive”.
For `CC(C)CCC[C@@H](C)[C@H]1CC[C@H]2[C@@H]3CC4([C@H]5C[C@@H](Br)CC[C@]5(C)[C@H]3CC[C@]12C)S(=O)(=O)CCS4(=O)=O`, the mutagenic call was “inactive; negative” (Test System: AMES SALMONELLA TYPHIMURIUM, Strain/Indicator: TA97A, Metabolic Activation: NONE); “active; positive” (Test System: AMES SALMONELLA TYPHIMURIUM, Strain/Indicator: TA97A, Metabolic Activation: RAT, LIVER, S-9, AROCLOR 1254); “inactive; negative” (Test System: AMES SALMONELLA TYPHIMURIUM, Strain/Indicator: TA98, Metabolic Activation: NONE); “inactive; negative” (Test System: AMES SALMONELLA TYPHIMURIUM, Strain/Indicator: TA100, Metabolic Activation: NONE); “inactive; negative” (Test System: AMES SALMONELLA TYPHIMURIUM, Strain/Indicator: TA100, Metabolic Activation: RAT, LIVER, S-9, AROCLOR 1254); “active; positive” (Test System: AMES SALMONELLA TYPHIMURIUM, Strain/Indicator: TA102, Metabolic Activation: NONE). Further, the mutagenic call runs as follows: (Test System: AMES SALMONELLA TYPHIMURIUM, Strain/Indicator: TA102, Metabolic Activation: RAT, LIVER, S-9, AROCLOR 1254) “active; positive”; (Test System: AMES SALMONELLA TYPHIMURIUM, Strain/Indicator: TA104, Metabolic Activation: NONE) “active; positive”; (Test System: AMES SALMONELLA TYPHIMURIUM, Strain/Indicator: TA104, Metabolic Activation: RAT, LIVER, S-9, AROCLOR 1254) “active; positive”.
As to `C=CCN(CC=C)C1c2ccccc2-c2ccccc2C1N1C2c3ccccc3-c3ccccc3C21` (centres undefined), the mutagenic call under setting [2] was “inactive; negative”.
